{"source": "paper PMC9849163", "about": "“Characterisation of AMB-FUBINACA metabolism and CB1-mediated activity of its acid metabolite” (Forensic Toxicology, 2022)", "key": {"[1]": {"molecular_target": "T1, CES1 (carboxylesterase 1, CES1A1) (Homo sapiens, UniProt P23141)", "T1 construct": "CES1 isoform b (CES1b/CES1A1) human recombinant", "T1 sequence (P23141 18-567)": "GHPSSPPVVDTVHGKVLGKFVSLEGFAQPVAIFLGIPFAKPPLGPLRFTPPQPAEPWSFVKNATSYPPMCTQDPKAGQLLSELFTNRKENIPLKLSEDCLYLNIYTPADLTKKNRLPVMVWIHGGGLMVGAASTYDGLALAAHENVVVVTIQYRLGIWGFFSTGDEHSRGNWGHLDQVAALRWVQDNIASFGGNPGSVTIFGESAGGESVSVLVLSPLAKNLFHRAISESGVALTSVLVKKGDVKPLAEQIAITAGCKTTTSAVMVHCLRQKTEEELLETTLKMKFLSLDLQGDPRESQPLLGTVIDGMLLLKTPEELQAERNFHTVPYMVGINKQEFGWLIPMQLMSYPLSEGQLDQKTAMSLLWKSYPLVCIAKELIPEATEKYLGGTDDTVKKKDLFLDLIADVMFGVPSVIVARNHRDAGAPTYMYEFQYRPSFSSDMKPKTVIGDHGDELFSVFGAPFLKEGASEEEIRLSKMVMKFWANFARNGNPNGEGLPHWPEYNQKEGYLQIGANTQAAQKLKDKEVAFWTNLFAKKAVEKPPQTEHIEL", "test": "product of AMB-FUBINACA hydrolysis by recombinant CES1, HPLC-DAD", "assay_type": "biochemical"}, "[2]": {"molecular_target": "T2, cannabinoid type-1 receptor (CB1) (Homo sapiens, UniProt P21554)", "T2 construct": "gene CNR1; 3HA-tagged human CB1 in HEK293 cells", "T2 sequence (P21554 whole entry)": "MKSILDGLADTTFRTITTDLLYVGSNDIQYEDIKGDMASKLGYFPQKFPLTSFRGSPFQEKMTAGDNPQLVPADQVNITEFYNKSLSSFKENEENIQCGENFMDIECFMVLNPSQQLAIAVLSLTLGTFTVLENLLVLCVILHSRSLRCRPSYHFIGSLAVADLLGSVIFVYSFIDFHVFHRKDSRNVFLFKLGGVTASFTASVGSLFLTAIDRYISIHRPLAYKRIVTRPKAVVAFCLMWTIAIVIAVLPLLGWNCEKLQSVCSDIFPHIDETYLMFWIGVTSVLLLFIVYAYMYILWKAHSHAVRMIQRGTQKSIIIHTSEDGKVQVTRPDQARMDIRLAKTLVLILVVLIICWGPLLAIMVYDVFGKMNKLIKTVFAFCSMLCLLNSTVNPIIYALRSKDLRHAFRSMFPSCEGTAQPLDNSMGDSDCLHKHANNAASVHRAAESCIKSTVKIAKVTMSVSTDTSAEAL", "test": "BRET CAMYEL cAMP inhibition assay (agonism); also weak radioligand displacement ([…] at […])", "assay_type": "cell-based"}, "[3]": {"molecular_target": "T2, cannabinoid type-1 receptor (CB1)", "test": "BRET CAMYEL cAMP inhibition assay (agonism) in HEK293 cells stably expressing 3HA-hCB1", "assay_type": "cell-based"}, "[4]": {"molecular_target": "T1, CES1 (carboxylesterase 1, CES1A1)", "test": "hydrolysis by recombinant CES1, HPLC-DAD time course (t1/[…] s at […])", "assay_type": "biochemical"}, "[5]": {"molecular_target": "T3, CES2 (carboxylesterase-2) (Homo sapiens, UniProt O00748)", "T3 construct": "carboxylesterase-2 (CES2) human recombinant", "T3 sequence (O00748 27-559)": "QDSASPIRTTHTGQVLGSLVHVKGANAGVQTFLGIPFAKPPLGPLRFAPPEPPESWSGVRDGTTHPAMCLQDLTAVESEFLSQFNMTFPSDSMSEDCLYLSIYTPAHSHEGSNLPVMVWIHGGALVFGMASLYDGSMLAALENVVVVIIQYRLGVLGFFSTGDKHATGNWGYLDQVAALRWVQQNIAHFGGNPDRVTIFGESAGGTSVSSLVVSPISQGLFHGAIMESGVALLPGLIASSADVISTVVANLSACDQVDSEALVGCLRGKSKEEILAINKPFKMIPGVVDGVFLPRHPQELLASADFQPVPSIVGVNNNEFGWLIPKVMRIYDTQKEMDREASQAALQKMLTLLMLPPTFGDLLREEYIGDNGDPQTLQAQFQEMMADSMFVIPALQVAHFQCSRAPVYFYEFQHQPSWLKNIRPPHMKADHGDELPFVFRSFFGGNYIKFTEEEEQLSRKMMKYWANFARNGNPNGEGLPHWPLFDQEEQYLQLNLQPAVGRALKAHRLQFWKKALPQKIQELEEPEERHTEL", "test": "p-nitrophenol formation by recombinant CES2, absorbance at […] nm", "assay_type": "biochemical"}, "[6]": {"molecular_target": "T1, CES1 (carboxylesterase 1, CES1A1)", "test": "p-nitrophenol formation by recombinant CES1, absorbance at […] nm", "assay_type": "biochemical"}, "[7]": {"molecular_target": "T1, CES1 (carboxylesterase 1, CES1A1)", "test": "inhibition of PNPA hydrolysis by recombinant CES1, absorbance at […] nm", "assay_type": "biochemical", "settings": "read-out: % of control velocity at 50 μM"}, "[8]": {"molecular_target": "T3, CES2 (carboxylesterase-2)", "test": "inhibition of PNPA hydrolysis by recombinant CES2, absorbance at […] nm", "assay_type": "biochemical", "settings": "read-out: % of control velocity at 50 μM"}}}
{"smiles": "CC(C)[C@H](NC(=O)c1nn(Cc2ccc(F)cc2)c2ccccc12)C(=O)O", "note": "[AMB-FUBINACA acid, methyl (2S)-2-((1-((4-fluorophenyl)methyl]indazole-3-carbonyl)amino)-3-methylbutanoic acid]", "values": [{"measurement": "product of AMB-FUBINACA hydrolysis by recombinant CES1, HPLC-DAD", "setting": "[1]", "value": "No metabolites other than AMB-FUBINACA acid were generated"}, {"measurement": "EC50", "setting": "[2]", "value": 447, "unit": "nM"}]}
{"smiles": "COC(=O)[C@@H](NC(=O)c1nn(Cc2ccc(F)cc2)c2ccccc12)C(C)C", "note": "[AMB-FUBINACA, methyl (2S)-2-((1-((4-fluorophenyl)methyl)indazole-3-carbonyl)amino)-3-methylbutanoate]", "values": [{"measurement": "EC50", "setting": "[3]", "value": 0.148, "unit": "nM"}, {"measurement": "half-life at 3 µM", "setting": "[4]", "value": 2, "unit": "min"}]}
{"smiles": "CC(=O)Oc1ccc([N+](=O)[O-])cc1", "note": "[p-nitrophenyl acetate]", "values": [{"measurement": "p-nitrophenol formation by recombinant CES2, absorbance at 405 nm", "setting": "[5]", "value": 221, "unit": "nmol/min/mg"}, {"measurement": "p-nitrophenol formation by recombinant CES1, absorbance at 405 nm", "setting": "[6]", "value": 296, "unit": "nmol/min/mg"}]}
{"smiles": "CCCc1nc2c(C)cc(-c3nc4ccccc4n3C)cc2n1Cc1ccc(-c2ccccc2C(=O)O)cc1", "note": "[telmisartan]", "values": [{"measurement": "remaining activity at 50 µM", "setting": "[7]", "value": 71, "unit": "%"}, {"measurement": "remaining activity at 50 µM", "setting": "[8]", "value": 58.2, "unit": "%"}]}
